Experimental data from patent publication US20200282003A1, “MITOCHONDRIAL-TARGETED AN[…] AGAINST MECHANICAL VENTILATION-INDUCED DIAPHRAGM DYSFUNCTION AND SKELETAL MUSCLE ATROPHY” (Cornell University, priority 2010, published 2020).
Square brackets hold non-standard residues; d marks the D form. Peptide text beside a SMILES is read from it. Dmt = Cc1cc(O)cc(C)c1C[C@H](N)C(=O)O

Experiments:
[1] = test system: several mammalian cell types; details: energy-independent manner; cited from earlier work
[2] = mean ± SEM
Description: To analyze mitochondrial ROS emissions following MV-induced diaphragmatic oxidative stress and weakness, rats were randomly assigned to one of three experimental groups (n=12/group): (1) an acutely anesthetized control group; (2) a 12-hour MV group (MV); and 3) a 12-hour MV group treated with the mitochondrial-targeted antioxidant SS-31 (MVSS). Because of the large tissue requirement for our numerous dependent measures, six animals from each experimental group were used for the mitochondrial measures and the remaining six animals in each group were employed in all other biochemical assays.
Animals in the control group were acutely anesthetized with an intraperitoneal (IP) injection of sodium pentobarbital (60 mg/kg body weight). […] The mitochondrial-targeted antioxidant SS-31 was dissolved in saline and delivered in a bolus (loading) dose (3 mg/kg; subcutaneous injection) 15 min prior to initiation of MV. A constant intravenous infusion (0.05 mg/kg/hr) of SS-31 was maintained throughout MV.
All surgical procedures were performed using aseptic techniques. Animals in the MV groups were anesthetized with an IP injection of sodium pentobarbital (60 mg/kg body weight), tracheostomized, and mechanically ventilated with a pressure-controlled ventilator (Servo Ventilator 300, Siemens) for 12 hours with the following settings: upper airway pressure limit: 20 cm H2O, typical pressure generation above PEEP was 6-9 cm H2O, respiratory rate: 80 bpm; and PEEP: 1 cm H2O.
The carotid artery was cannulated to permit the continuous measurement of blood pressure and the collection of blood during the protocol. Arterial blood samples (100 μl per sample) were removed periodically and analyzed for arterial pO2, pCO2 and pH using an electronic blood-gas analyzer (GEM Premier 3000; Instrumentation Laboratory, Lexington, Mass.). Ventilator adjustments were made if arterial PCO2 exceeded 40 mm Hg. Arterial PO2 was maintained >60 mmHg throughout the experiment by increasing the FIO2 (22-26% oxygen).
A venous catheter was inserted into the jugular vein for continuous infusion of sodium pentobarbital (˜10 mg/kg/hr) and fluid replacement. Body temperature was maintained at 37° C. by use of a recirculating heating blanket and heart rate was monitored via a lead II electrocardiograph. Continuous care during the MV protocol included lubricating the eyes, expressing the bladder, removing airway mucus, rotating the animal, and passively moving the limbs. Animals also received an intramuscular injection of glycopyrrolate (0.18 mg/kg) every two hours during MV to reduce airway secretions.

[3] = rats at completion of 12 h MV with SS-31

Compound | Penetration of the plasma membrane [1] | Arterial PCO2 [2, 3] | Arterial PO2 [2, 3] [mm/Hg] | Arterial pH [2, 3] | Systolic blood pressure [2, 3] [mm/Hg] | Heart rate ([2]; rats at completion of 12 h MV, SS-31 3 mg/kg s.c. bolus + 0.05 mg/kg/hr i.v.) [beats/min]
2′,6′-Dmt-D-Arg-Phe-Lys-NH2 [SS-02] | readily penetrates |  |  |  |  | 
Cc1cc(O)cc(C)c1C[C@H](NC(=O)[C@H](N)CCCNC(=N)N)C(=O)N[C@@H](CCCCN)C(=O)N[C@@H](Cc1ccccc1)C(N)=O [SS-31, D-Arg-2′,6′-Dmt-Lys-Phe-NH2] (H-[dR][Dmt]KF-NH2) |  | 46 ± 1 | 75 ± 5 | 7.41 ± 0.01 | 108 ± 5 | 347 ± 7
